Non-standard residues stand in square brackets, D forms with d. Residues, ends and D or L forms follow the SMILES beside them. *: point of attachment. Pip = O=C(O)[C@@H]1CCCCN1; Cbz = O=C(OCc1ccccc1)*
Assay: The compound was tested for the inhibitory activity of FK506 binding protein
Parameters: species or system Homo sapiens

IC50	Structure (SMILES)
> 100 µM	COc1cccc(C(=O)CN2CCCC[C@H]2C(=O)N[C@@H](CCc2ccccc2)C(=O)OC(C)C)c1
65 µM	CC(C)[C@H](NC(=O)[C@H](Cc1ccccc1)NC(=O)[C@@H]1CCCCN1CC(=O)c1ccc2ccccc2c1)C(=O)N[C@@H](Cc1ccccc1)C(=O)N[C@H](C)c1ccccc1
60 µM	C[C@@H](/C=C/c1ccc(C(=O)CN2CCCC2C(=O)NC(Cc2ccccc2)C(=O)OC(C)(C)C)s1)CO[Si](C)(C)C(C)(C)C (stereo not given in full)
> 100 µM	CC(C)(C)OC(=O)N[C@@H](CC1CCCCC1)C(=O)CN1CCCC1C(=O)NC(Cc1ccccc1)C(=O)OC(C)(C)C (stereo not given in full)
13 µM	CC(C)[C@H](NC(=O)[C@H](Cc1ccccc1)NC(=O)[C@@H]1CCCCN1CC(=O)c1ccc2ccccc2c1)C(=O)N[C@@H](Cc1ccccc1)C(=O)OC(C)(C)C
91 µM	COc1cccc(C(=O)CN2CCCC[C@H]2C(=O)N[C@@H](CC2CCCCC2)C(=O)OC(C)(C)C)c1
23 µM	COc1cccc(C(=O)CN2CCCC[C@H]2C(=O)N[C@H](C(=O)OC(C)(C)C)c2cccs2)c1
0.3 µM	COC(=O)[C@H](Cc1ccccc1)NC(=O)[C@@H](NC(=O)[C@H](Cc1ccccc1)NC(=O)[C@@H]1CCCCN1CC(=O)c1ccc2ccccc2c1)C(C)C
81 µM	COc1cccc(C(=O)CN2CCCC[C@H]2C(=O)N[C@H](Cc2ccccc2)C(=O)OC(C)(C)C)c1
12 µM	C=CCCC(NC(=O)[C@H](Cc1ccccc1)NC(=O)[C@@H]1CCCCN1CC(=O)c1cccc(OC)c1)C(=O)OC(C)(C)C (stereo not given in full)
> 100 µM	COc1cccc(C(=O)CN2CCCC[C@H]2C(=O)N[C@@H](CCC2CCCCC2)C(=O)OC(C)C)c1
8 µM	CCC(C)[C@H](NC(=O)[C@@H]1CCCCN1CC(=O)c1cccc(OC)c1)C(=O)OC(C)(C)C (stereo not given in full)
42 µM	COc1cccc(C(=O)CN2CCCC[C@H]2C(=O)N[C@@H](Cc2ccccc2)C(=O)N[C@H](/C=C/C2CCCC(=O)O2)C(C)C)c1 (stereo not given in full)
12 µM	COc1cccc(C(=O)CN2CCCC2C(=O)NC(Cc2ccccc2)C(=O)OC(C)(C)C)c1 (stereo not given)
1 µM	COc1cccc(C(=O)CN2CCCC[C@H]2C(=O)N[C@@H](Cc2ccccc2)C(=O)N[C@H](/C=C/COC(=O)C(F)(F)F)C(C)C)c1
120 µM	C[C@@H](/C=C/c1ccc(C(=O)C(=O)N2CCCC2C(=O)NC(Cc2ccccc2)C(=O)OC(C)(C)C)s1)CO (stereo not given in full)
59 µM	COc1cccc(C(=O)CN2CCCC[C@H]2C(=O)N[C@@H](Cc2ccccc2)C(=O)N[C@H](C(=O)N[C@@H](Cc2ccccc2)C(=O)N[C@@H](C)c2ccccc2)C(C)C)c1
2 µM	COc1cccc(C(=O)CN2CCCC[C@H]2C(=O)N[C@@H](Cc2ccccc2)C(=O)N[C@H](/C=C/I)C(C)C)c1
40 µM	COc1cccc(C(=O)CN2CCCC[C@H]2C(=O)N[C@@H](Cc2ccccc2)C(=O)NC(Cc2ccccc2)C(=O)OC(C)(C)C)c1 (stereo not given in full)
6 µM	CCC(C)C(NC(=O)[C@H](Cc1ccccc1)NC(=O)[C@@H]1CCCCN1CC(=O)c1cccc(OC)c1)C(=O)OC(C)(C)C (stereo not given in full)
85 µM	COc1cccc(C(=O)CN2CCCC[C@H]2C(=O)N[C@@H](Cc2ccccc2)C(=O)N[C@H](C(=O)N[C@@H](Cc2ccccc2)C(=O)N[C@H](C)c2ccccc2)C(C)C)c1
3 µM	COc1cccc(C(=O)CN2CCCC[C@H]2C(=O)N[C@@H](Cc2ccccc2)C(=O)NC(C(=O)OC(C)(C)C)C(C)C)c1 (stereo not given in full)
62 µM	COc1cccc(C(=O)CN2CCCC[C@H]2C(=O)N[C@@H](Cc2ccccc2)C(=O)N[C@H](/C=C/COC(=O)c2ccccc2)C(C)C)c1
9 µM	C[C@@H](/C=C/c1ccc(C(=O)C(=O)N2CCCC[C@H]2C(=O)NC(Cc2ccccc2)C(=O)OC(C)(C)C)s1)CO (stereo not given in full)
> 100 µM	COC1CCCC(C(=O)CN2CCCC2C(=O)NC(Cc2ccccc2)C(=O)OC(C)(C)C)C1 (stereo not given)
27 µM	COc1cccc(C(=O)CN2CCCC[C@H]2C(=O)N[C@@H](Cc2ccc([N+](=O)[O-])cc2)C(=O)OC(C)(C)C)c1
23 µM	COc1cccc(C(=O)CN2CCCC[C@H]2C(=O)N[C@@H](Cc2ccccc2)C(=O)N[C@H](C(=O)N[C@@H](Cc2ccccc2)C(=O)O[C@H](C)c2ccccc2)C(C)C)c1
56 µM	COc1cccc(C(=O)CN2CCCC[C@H]2C(=O)N[C@@H](Cc2ccccc2)C(=O)N[C@H](C(=O)N[C@@H](Cc2ccccc2)C(=O)O[C@@H](C)c2ccccc2)C(C)C)c1

IC50	Structure (SMILES)
35 µM	CC(C)(C)OC(=O)C(CC1CCCCC1)NC(=O)[C@H](Cc1ccccc1)NC(=O)[C@@H]1CCCCN1CC(=O)c1ccc2ccccc2c1 (stereo not given in full)
20 µM	COc1cccc(C(=O)CN2CCCC[C@H]2C(=O)N[C@@H](Cc2ccccc2)C(=O)N[C@H](C(=O)N[C@@H](Cc2ccccc2)C(=O)OC(C)(C)C)C(C)C)c1
3 µM	C=CCOC/C=C/[C@@H](NC(=O)[C@H](Cc1ccccc1)NC(=O)[C@@H]1CCCCN1CC(=O)c1cccc(OC)c1)C(C)C
75 µM	CC(C)[C@H](NC(=O)[C@H](Cc1ccccc1)NC(=O)[C@@H]1CCCCN1CC(=O)c1ccc2ccccc2c1)C(=O)N[C@@H](Cc1ccccc1)C(=O)N[C@H](C)c1cccc2ccccc12
> 100 µM	C[C@@H](/C=C/c1ccc(C(=O)C(=O)N2CCCC2C(=O)OC(C)(C)C)s1)CO[Si](C)(C)C(C)(C)C (stereo not given in full)
> 100 µM	C[C@@H](/C=C/c1ccc(C(=O)C(=O)N2CCCC2C(=O)NC(Cc2ccccc2)C(=O)OC(C)(C)C)s1)CO[Si](C)(C)C(C)(C)C (stereo not given in full)
18 µM	CC(=O)OC/C=C/[C@@H](NC(=O)[C@H](Cc1ccccc1)NC(=O)[C@@H]1CCCCN1CC(=O)c1ccc2ccccc2c1)C(C)C
2 µM	COc1cccc(C(=O)CN2CCCC[C@H]2C(=O)N[C@@H](Cc2ccccc2)C(=O)N[C@H](/C=C/COC(C)=O)C(C)C)c1
22 µM	COc1cccc(C(=O)CN2CCCC[C@H]2C(=O)N[C@H](C(=O)OC(C)(C)C)c2ccsc2)c1
10 µM	COc1cccc(C(=O)CN2CCCC[C@H]2C(=O)N[C@@H](Cc2ccccc2)C(=O)N[C@H](/C=C/[C@@H](C)CC(C)=O)C(C)C)c1
70 µM	COc1cccc(C(=O)CN2CCCC[C@H]2C(=O)N[C@@H](Cc2ccccc2)C(=O)NC(CC2CCCCC2)C(=O)OC(C)(C)C)c1 (stereo not given in full)
35 µM	CC(C)[C@@H](/C=C/C(=O)N[C@@H](C)c1ccccc1)NC(=O)[C@H](Cc1ccccc1)NC(=O)[C@@H]1CCCCN1CC(=O)c1ccc2ccccc2c1
11 µM	COc1cccc(C(=O)CN2CCCC[C@H]2C(=O)N[C@@H](Cc2ccccc2)C(=O)N[C@H](/C=C/C2CCC(=O)C2)C(C)C)c1 (stereo not given in full)
3 µM	COc1cccc(C(=O)CN2CCCC[C@H]2C(=O)N[C@@H](Cc2ccccc2)C(=O)NC(CC(C)C)C(=O)OC(C)(C)C)c1 (stereo not given in full)
40 µM	COc1cccc(C(=O)CN2CCCC[C@H]2C(=O)N[C@@H](Cc2ccccc2)C(=O)N[C@H](/C=C/C(=O)N[C@@H](C)c2ccccc2)C(C)C)c1
1 µM	CC(C)C(NC(=O)[C@H](Cc1ccccc1)NC(=O)[C@@H]1CCCCN1CC(=O)c1ccc2ccccc2c1)C(=O)OC(C)(C)C (stereo not given in full)
3 µM	COc1cccc(C(=O)CN2CCCC[C@H]2C(=O)N[C@@H](Cc2ccccc2)C(=O)OC(C)(C)C)c1
> 100 µM	C[C@@H](/C=C/c1ccc(C(=O)C(=O)N2CCCC2C(=O)OC(C)(C)C)s1)CO (stereo not given in full)
30 µM	COc1cccc(C(=O)CN2CCCC[C@H]2C(=O)N[C@@H](Cc2ccccc2)C(=O)N[C@H](C(=O)N[C@@H](Cc2ccccc2)C(=O)N[C@H](C)c2cccc3ccccc23)C(C)C)c1
> 100 µM	COc1cccc(C(=O)CN2CCCC[C@H]2C(=O)N[C@@H](Cc2ccccc2)C(=O)NC(CCCCNC(=O)OCc2ccccc2)C(=O)OCc2ccccc2)c1 (stereo not given in full)
14 µM	COc1cccc(C(=O)CN2CCCC[C@H]2C(=O)N[C@@H](Cc2ccccc2)C(=O)N[C@H](C(=O)Cc2ccccc2)C(C)C)c1
15 µM	CCOC(=O)/C=C/[C@@H](NC(=O)[C@H](Cc1ccccc1)NC(=O)[C@@H]1CCCCN1CC(=O)c1cccc(OC)c1)C(C)C
26 µM	COC(=O)[C@H](Cc1ccccc1)NC(=O)[C@@H](NC(=O)[C@H](Cc1ccccc1)NC(=O)[C@@H]1CCCCN1CC(=O)c1ccc(-c2ccccc2)cc1)C(C)C
1 µM	COC(=O)[C@H](Cc1ccccc1)NC(=O)[C@@H](NC(=O)[C@H](Cc1ccccc1)NC(=O)[C@@H]1CCCCN1CC(=O)c1cccc(OC)c1)C(C)C
83 µM	COc1cccc(C(=O)CN2CCCC[C@H]2C(=O)N[C@H](C(=O)OC(C)(C)C)C(C)C)c1
> 100 µM	COC(=O)[C@H](Cc1ccccc1)NC(=O)[C@@H](NC(=O)[C@H](Cc1ccccc1)NC(=O)[C@@H]1CCCCN1C(=O)OCc1ccccc1)C(C)C (Cbz-[Pip]FVF-OMe)
> 100 µM	COC(=O)[C@H](Cc1ccccc1)NC(=O)[C@@H](NC(=O)[C@H](Cc1ccccc1)NC(=O)[C@@H]1CCCCN1)C(C)C (H-[Pip]FVF-OMe)

Source: ChEMBL document CHEMBL1126200, “Design and synthesis of novel FKBP inhibitors” (J Med Chem, 1992)
